How the values were obtained:
[1] = biological target: T1, Human GLP-1R (Homo sapiens, UniProt P43220); assay: cAMP stimulation in CHO-K1 cells expressing human GLP-1R (AlphaScreen); format: cell-based; settings: read-out: functional potency (EC50) in CHO-K1 cells, GLP-1R
[2] = biological target: T2, endogenous mouse GLP-1R (Mus musculus, UniProt O35659); assay: cAMP stimulation in mouse insulinoma MIN6 cells; format: cell-based
T2 construct: The EC50 for the endogenous mouse GLP-1R was assessed in the insulinoma cell line MIN6; endogenous in cells; host or cells: MIN6 mouse insulinoma cells
T2 sequence (O35659 22-463): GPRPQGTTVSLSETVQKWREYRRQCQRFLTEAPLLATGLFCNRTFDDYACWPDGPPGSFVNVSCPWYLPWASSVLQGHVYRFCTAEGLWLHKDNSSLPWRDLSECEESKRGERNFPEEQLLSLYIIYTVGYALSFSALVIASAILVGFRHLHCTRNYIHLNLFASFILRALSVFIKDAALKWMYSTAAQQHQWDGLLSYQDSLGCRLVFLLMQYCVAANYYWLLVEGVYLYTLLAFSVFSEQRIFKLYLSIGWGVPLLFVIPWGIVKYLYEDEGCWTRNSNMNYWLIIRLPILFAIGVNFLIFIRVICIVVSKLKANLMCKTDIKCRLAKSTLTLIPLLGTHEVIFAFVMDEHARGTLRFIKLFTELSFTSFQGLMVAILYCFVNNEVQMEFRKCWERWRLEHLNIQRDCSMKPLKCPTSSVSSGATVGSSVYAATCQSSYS

[3] = biological target: T3, Human GCGR (Homo sapiens, UniProt P47871); assay: cAMP stimulation in CHO-K1 cells expressing human GCGR (AlphaScreen); format: cell-based; settings: read-out: functional potency (EC50) in CHO-K1 cells, GCGR
T3 sequence (P47871 26-477): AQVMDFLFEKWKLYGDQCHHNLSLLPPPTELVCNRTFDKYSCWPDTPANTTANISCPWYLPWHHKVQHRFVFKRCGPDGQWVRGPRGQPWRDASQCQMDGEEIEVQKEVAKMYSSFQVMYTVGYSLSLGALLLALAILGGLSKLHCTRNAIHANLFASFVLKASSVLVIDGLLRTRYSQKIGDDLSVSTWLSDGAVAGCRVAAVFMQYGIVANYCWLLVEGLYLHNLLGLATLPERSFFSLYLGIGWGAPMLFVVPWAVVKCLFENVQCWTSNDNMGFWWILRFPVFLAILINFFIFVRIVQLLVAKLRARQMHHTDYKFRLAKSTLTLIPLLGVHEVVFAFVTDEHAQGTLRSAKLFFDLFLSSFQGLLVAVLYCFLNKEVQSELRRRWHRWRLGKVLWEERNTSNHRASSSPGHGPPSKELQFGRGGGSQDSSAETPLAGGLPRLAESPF

[4] = biological target: T4, endogenous GCGR (Homo sapiens, UniProt P47871); assay: cAMP stimulation in primary human hepatocytes; format: cell-based; settings: 0.1% BSA, Figure 1B, read-out: cAMP pEC50±SD, Human Hepatocytes (converted)
T4 construct: endogenous in cells; host or cells: primary human hepatocytes
T4 sequence (P47871 26-477): as above

[5] = biological target: T5, endogenous GCGR (Mus musculus, UniProt Q61606); assay: cAMP stimulation in primary mouse hepatocytes; format: cell-based; settings: 0.1% BSA, Figure 1B, read-out: cAMP pEC50±SD, Mouse Hepatocytes (converted)
T5 construct: endogenous in cells; host or cells: primary mouse hepatocytes
T5 sequence (Q61606 27-485): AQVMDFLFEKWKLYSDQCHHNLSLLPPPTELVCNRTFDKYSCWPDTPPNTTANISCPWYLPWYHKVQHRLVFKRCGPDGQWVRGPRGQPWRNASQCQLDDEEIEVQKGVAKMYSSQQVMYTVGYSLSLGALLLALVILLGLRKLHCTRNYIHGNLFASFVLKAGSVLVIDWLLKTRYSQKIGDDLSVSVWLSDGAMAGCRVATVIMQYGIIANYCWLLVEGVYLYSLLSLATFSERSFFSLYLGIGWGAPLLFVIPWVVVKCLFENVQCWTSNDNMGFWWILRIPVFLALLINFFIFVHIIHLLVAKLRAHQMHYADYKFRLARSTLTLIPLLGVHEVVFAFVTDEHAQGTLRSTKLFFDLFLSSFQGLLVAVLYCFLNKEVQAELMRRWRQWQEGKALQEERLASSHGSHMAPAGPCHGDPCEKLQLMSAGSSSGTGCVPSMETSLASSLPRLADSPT

[6] = biological target: T6, endogenous GCGR (Rattus norvegicus, UniProt P30082); assay: cAMP stimulation in primary rat hepatocytes; format: cell-based; settings: 0.1% BSA, Figure 1B, read-out: cAMP pEC50±SD, Rat Hepatocytes (converted)
T6 construct: endogenous in cells; host or cells: primary rat hepatocytes
T6 sequence (P30082 27-485): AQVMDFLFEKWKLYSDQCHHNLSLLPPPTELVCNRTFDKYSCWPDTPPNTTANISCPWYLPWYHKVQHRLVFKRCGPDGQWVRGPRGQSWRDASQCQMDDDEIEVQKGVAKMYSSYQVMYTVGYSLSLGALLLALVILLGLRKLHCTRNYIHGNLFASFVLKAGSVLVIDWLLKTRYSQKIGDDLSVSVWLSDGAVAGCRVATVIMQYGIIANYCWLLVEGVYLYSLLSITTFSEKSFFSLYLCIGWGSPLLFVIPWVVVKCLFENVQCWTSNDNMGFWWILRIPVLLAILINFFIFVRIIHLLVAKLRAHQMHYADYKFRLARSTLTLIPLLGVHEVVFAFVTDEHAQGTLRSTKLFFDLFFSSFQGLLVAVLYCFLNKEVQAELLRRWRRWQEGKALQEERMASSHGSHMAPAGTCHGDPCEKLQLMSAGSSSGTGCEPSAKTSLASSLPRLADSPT

[7] = biological target: T7, GCGR (Rattus norvegicus, UniProt P30082); assay: Inhibition of glycogen synthesis in primary rat hepatocytes (14C-glucose incorporation); format: cell-based; settings: 0.1% BSA, 22.5 mM glucose, 180 min, Figure 1B, read-out: GSi pIC50±SD, Rat Hepatocytes (converted)
T7 construct: endogenous in cells; host or cells: primary rat hepatocytes
T7 sequence (P30082 27-485): as above

[8] = biological target: T3, Human GCGR; assay: CRE-induced luciferase activity, HEK293 CRE-luc2P cells, human GCGR, in plasma; format: cell-based; settings: for EC50: n = 3
[9] = biological target: T1, Human GLP-1R; assay: CRE-induced luciferase activity, HEK293 CRE-luc2P cells, human GLP-1R, in plasma; format: cell-based; settings: n = 3
[10] = Pharmacokinetics in mice; format: in vivo
Description: (§1) For pharmacokinetic analysis, male C57BL/6NRj mice (Janvier, France) were given a single intravenous (IV) or subcutaneous (SC) BI 456906 dose (20 nmol/kg; N = 3 per route). In addition, male Beagle dogs received an IV or SC dose of 5 nmol/kg or 10 nmol/kg (N = 3) BI 456906, respectively. Plasma samples were generated at different time points post dosing and stored at −20 °C until further analysis. Plasma concentrations of BI 456906 were measured using a liquid chromatography/tandem mass spectrometry (LC/MS/MS) method with a calibration range of 0.5–1000 nM on a QTRAP 6500+ (Sciex, Framingham, MA, USA). Samples were pre-treated with ethanol for protein precipitation before the analysis.

[11] = Pharmacokinetics in Beagle dogs; format: in vivo; settings: dog, SC injection, 10 nmol/kg, male Beagle dogs, N = 3, plasma, LC/MS/MS (Table S1)
Description: as §1

[12] = biological target: T8, GLP-1R (Mus musculus, UniProt O35659); assay: Oral glucose tolerance test in lean mice, single dosing; format: in vivo
T8 construct: The acute potency of BI 456906 in engaging the GLP-1R was tested in lean mice after single dosing; tissue Janvier Labs; host or cells: whole animal: lean wild-type NMRI, C57BL6/J or B6J mice
T8 sequence (O35659 22-463): T2 sequence (O35659 22-463)
Description: Mice were then fasted from −10 h, before bolus ingestion of glucose (2 g/kg) at 0 h. Blood glucose was measured at 0, 15, 30, 60, and 120 min, and compound exposure was measured at 120 min. In both experiments, glucose was measured in whole blood using a commercially available glucometer (GlucoSmart Swing) with test strips (MSP bodmann GmbH, Bobingen, Germany). Data are represented as mean ± standard error of mean (SEM) and were compared using GraphPad Prism 9 using two-way ANOVA, followed by Dunnett’s method for multiple comparisons versus vehicle. Significant differences were identified at p < 0.05.
(§2) ED50 values were calculated in GraphPad Prism 9 using the nonlinear fit tool.

[13] = biological target: T8, GLP-1R; assay: Intraperitoneal glucose tolerance test in lean mice, single dosing; format: in vivo; settings: read-out: ED50 ipGTT
Description: Pre-treatment blood glucose was measured at −5 h. […] Baseline blood glucose was measured at −1 h, and then an intraperitoneal bolus of 2 g/kg glucose was applied at 0 h. Blood glucose was measured at 0, 15, 30, 60, and 120 min, and compound exposure was measured at 140 min.
as §2

[14] = biological target: T8, GLP-1R; assay: Inhibition of acute food intake in lean NMRI mice; format: in vivo; settings: single SC dose, 24 h food intake
Description: The room temperature was controlled at 21 °C ± 1 °C, with 60% ± 20% humidity. […] Six-week-old male mice were randomized into treatment groups based on food intake and bodyweight (n = 8–10 per group). […] ED50 values were calculated in GraphPad Prism 9 using the nonlinear fit tool.

[15] = biological target: T8, GLP-1R; assay: Acute gastric emptying (acetaminophen) in lean mice; format: in vivo
Description: After 60 min, ex vivo assays assessing acetaminophen, blood glucose, and terminal exposure were carried out. Acetaminophen was measured using an automated analyzer (Cobas Integra 400; Roche, Rotkreuz, Switzerland). […] ED50 values were calculated in GraphPad Prism 9 using the nonlinear fit tool.

[16] = Energy expenditure study in diet-induced obese mice (indirect calorimetry, telemetry); format: in vivo
Description: Male C57BL/6J mice were obtained from Charles River Laboratories (Sulzfeld, Germany) at age 6–7 weeks. Animals were housed in groups of five in individually ventilated cages with a 12 h light/dark cycle (06:00–18:00) and were acclimatized for 1 week with ad libitum feeding. Animals were then fed a 45% HFD for 18 or 30 weeks, before randomization to groups with similar average bodyweight at Day −1. Animals were dosed QD with SC vehicle (25 mM phosphate-buffered saline) or BI 456906 (5, 10, or 20 nmol/kg) for 9 days, with energy metabolism, activity, and core body temperature measured each day. On Day 10, mice were sacrificed by cervical dislocation after a final bleeding by puncture of the retrobulbar venous plexus.
Energy metabolism was measured by indirect calorimetry. […] The mass flow of air through the respiratory cages and the concentrations of O2 and CO2 in inspired and expired air were measured every 10 min. […] Energy expenditure was analyzed by ANCOVA (see 2.16) for animals kept in single housing (dose groups 5 and 10 nmol/kg), applying statistical analysis using a general linear model framework including bodyweight as a covariate. […] Therefore, the regression-based ANCOVA was not calculated. Core body temperature and activity were measured by sensors (model 10TA10TA-F10; Data Sciences International, New Brighton, MA, USA) implanted in the peritoneal cavities. […]

[17] = biological target: T3, Human GCGR; assay: Ex vivo bioactivity assay, HEK cells with human GCGR and CRE-luciferase, 100% mouse plasma; settings: DIO mice, plasma at study end, maximal dose of 30 nmol/kg
[18] = biological target: T1, Human GLP-1R; assay: Ex vivo bioactivity assay, HEK cells with human GLP-1R and CRE-luciferase, 100% mouse plasma
[19] = biological target: endogenous mouse GLP-1R (mouse (endogenous in MIN6)) (UniProt O35659)
[20] = biological target: human glucagon receptor (human) (UniProt P47871)
Sequence of human glucagon receptor (human) (P47871 26-477): as the sequence (P47871 26-477) above

[21] = biological target: human glucagon-like peptide-1 receptor (human) (UniProt P43220)
Sequence of human glucagon-like peptide-1 receptor (human) (P43220 24-463): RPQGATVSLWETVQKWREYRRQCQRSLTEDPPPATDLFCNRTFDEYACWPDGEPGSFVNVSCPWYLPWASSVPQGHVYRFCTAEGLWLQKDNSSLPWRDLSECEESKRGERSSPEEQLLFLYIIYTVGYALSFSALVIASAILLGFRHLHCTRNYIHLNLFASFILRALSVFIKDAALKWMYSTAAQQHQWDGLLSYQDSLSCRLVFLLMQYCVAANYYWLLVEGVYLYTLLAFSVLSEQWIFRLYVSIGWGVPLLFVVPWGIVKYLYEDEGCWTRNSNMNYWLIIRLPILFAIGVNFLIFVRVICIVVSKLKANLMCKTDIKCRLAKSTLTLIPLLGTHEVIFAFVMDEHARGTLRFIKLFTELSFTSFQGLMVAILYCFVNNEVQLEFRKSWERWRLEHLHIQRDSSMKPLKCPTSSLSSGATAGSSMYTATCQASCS

[22] = biological target: human glucagon receptor (human) (UniProt P47871); remark: listed apart in the source
[23] = biological target: human glucagon-like peptide-1 receptor (human) (UniProt P43220); remark: listed apart in the source

T1 sequence (P43220 24-463): as above

Compound: CC[C@H](C)[C@H](NC(=O)[C@H](Cc1ccccc1)NC(=O)[C@H](CC(=O)O)NC(=O)[C@H](CCCCN)NC(=O)[C@H](C)NC(=O)[C@H](C)NC(=O)[C@H](CCCNC(=N)N)NC(=O)[C@H](CCC(=O)O)NC(=O)[C@H](CC(=O)O)NC(=O)[C@H](CC(C)C)NC(=O)[C@H](Cc1ccc(O)cc1)NC(=O)[C@H](CCCCN)NC(=O)[C@H](CO)NC(=O)[C@H](Cc1ccc(O)cc1)NC(=O)[C@H](CC(=O)O)NC(=O)[C@H](CO)NC(=O)[C@@H](NC(=O)[C@H](Cc1ccccc1)NC(=O)[C@@H](NC(=O)CNC(=O)[C@H](CCC(N)=O)NC(=O)C1(NC(=O)[C@@H](N)Cc2c[nH]cn2)CCC1)[C@@H](C)O)[C@@H](C)O)C(=O)N[C@@H](CCCCNC(=O)CNC(=O)CNC(=O)[C@H](CO)NC(=O)CNC(=O)[C@H](CO)NC(=O)CNC(=O)CC[C@H](NC(=O)CCCCCCCCCCCCCCCCC(=O)O)C(=O)O)C(=O)N[C@@H](Cc1c[nH]c2ccccc12)C(=O)N[C@@H](CC(C)C)C(=O)N[C@@H](CCC(=O)O)C(=O)N[C@@H](CO)C(=O)N[C@@H](C)C(N)=O [BI 456906]
- EC50 [1]: 0.33 nM
- EC50 [2]: 0.36 nM
- EC50 [3]: 0.52 nM
- EC50 [4]: 537 nM
- EC50 [5]: 407 nM
- EC50 [6]: 18.6 nM
- IC50 [7]: 0.437 nM
- fold less potent at the GCGR in relation to endogenous glucagon ([8]; 0.5% human and mouse plasma): ~6 fold
- EC50 ([8]; Human GCGR HEK293 Cre-Luc EC50, Human Plasma 0.5%, 0.5% human plasma in KRBH, 4 h 37 °C): 0.29 nM
- EC50 ([8]; Human GCGR HEK293 Cre-Luc EC50, Human Plasma 100%, 100% human plasma, 4 h 37 °C): 8.3 nM
- EC50 ([8]; Human GCGR HEK293 Cre-Luc EC50, Mouse Plasma 0.5%, 0.5% mouse plasma in KRBH, 4 h 37 °C): 0.17 nM
- EC50 ([8]; Human GCGR HEK293 Cre-Luc EC50, Mouse Plasma 100%, 100% mouse plasma, 4 h 37 °C): 16 nM
- EC50 ([8]; Human GCGR HEK293 Cre-Luc pEC50±SD, Human Plasma 0.5%, 0.5% human plasma): 0.288 nM
- EC50 ([8]; Human GCGR HEK293 Cre-Luc pEC50±SD, Human Plasma 100%, 100% human plasma): 8.32 nM
- EC50 ([8]; Human GCGR HEK293 Cre-Luc pEC50±SD, Mouse Plasma 0.5%, 0.5% mouse plasma): 0.17 nM
- EC50 ([8]; Human GCGR HEK293 Cre-Luc pEC50±SD, Mouse Plasma 100%, 100% mouse plasma): 15.5 nM
- EC50 ([9]; Human GLP-1R HEK293 Cre-Luc EC50, Mouse Plasma 100%, 100% mouse plasma, 4 h 37 °C): 1.6 nM
- EC50 ([9]; Human GLP-1R HEK293 Cre-Luc pEC50±SD, Human Plasma 0.5%, 0.5% human plasma): 0.0148 nM
- EC50 ([9]; Human GLP-1R HEK293 Cre-Luc pEC50±SD, Human Plasma 100%, 100% human plasma): 1 nM
- EC50 ([9]; Human GLP-1R HEK293 Cre-Luc pEC50±SD, Mouse Plasma 0.5%, 0.5% mouse plasma): 0.00759 nM
- EC50 ([9]; Human GLP-1R HEK293 Cre-Luc pEC50±SD, Mouse Plasma 100%, 100% mouse plasma): 1.62 nM
- terminal half-life in mouse plasma compared with semaglutide (in words) ([10]; mouse pharmacokinetic profiles (Table S1)): longer terminal half-life
- Tmax ([10]; mouse, SC injection, 20 nmol/kg single dose, male C57BL/6NRj mice, N = 3, plasma, LC/MS/MS (Table S1)): 7 h
- MRT ([10]; mouse, SC injection, 20 nmol/kg single dose, male C57BL/6NRj mice, N = 3, plasma, LC/MS/MS (Table S1), read-out: mean residence time): 44 h
- Tmax [11]: 51 h
- MRT ([11]; read-out: mean residence time): 140 h
- ED50 [12]: 0.0021 µmol/kg
- ED50 [13]: 0.004 µmol/kg
- ED50 [14]: 0.09 µmol/kg
- ED50 ([15]; mouse, sc): 0.041 µmol/kg
- inhibition of gastric emptying, effective doses (in words) ([15]; reduced acetaminophen excursion, single SC dose, lean mice): effective only at higher doses of 100 and 300 nmol/kg
- energy expenditure (in words) ([16]; DIO mice, 5, 10 or 20 nmol/kg SC QD for 9 days, indirect calorimetry): dose-dependent increase in energy expenditure
- core body temperature and activity (in words) ([16]; DIO mice, therapeutic doses, implanted sensors): did not increase core body temperature or activity
- ex vivo bioequivalence over EC50, GCGR [17]: < 100 fold
- EC50 [18]: 2.4 nM
- ex vivo bioequivalence over EC50, GLP-1R ([18]; DIO mice, plasma at study end, maximal dose of 30 nmol/kg): less than 1000 fold

Compound: BI 456906 (peptide)
- EC50 of cAMP generation, mouse insulinoma MIN6 cells (endogenous receptor) [19]: 0.36 nM
- EC50 of cAMP generation (AlphaScreen cAMP assay), CHO-K1 cells expressing human GCGR, 0.1% BSA [20]: 0.52 nM
- EC50 of cAMP generation (AlphaScreen cAMP assay), CHO-K1 cells expressing human GLP-1R, 0.1% BSA [21]: 0.33 nM
- EC50 in the CRE-luciferase assay, HEK293 CRE-luc2P cells expressing recombinant GCGR, 0.5% human plasma [22]: 0.29 nM
- EC50 in the CRE-luciferase assay, HEK293 CRE-luc2P cells expressing recombinant GCGR, 0.5% mouse plasma [22]: 0.17 nM
- EC50 in the CRE-luciferase assay, HEK293 CRE-luc2P cells expressing recombinant GCGR, 100% human plasma [22]: 8.3 nM
- EC50 in the CRE-luciferase assay, HEK293 CRE-luc2P cells expressing recombinant GCGR, 100% mouse plasma [22]: 16 nM
- EC50 in the CRE-luciferase assay, HEK293 CRE-luc2P cells expressing recombinant GLP-1R, 100% human plasma [23]: 1 nM
- EC50 in the CRE-luciferase assay, HEK293 CRE-luc2P cells expressing recombinant GLP-1R, 100% mouse plasma [23]: 1.6 nM

Compound: glucagon-like peptide-1
- EC50 of cAMP generation, mouse insulinoma MIN6 cells (endogenous receptor) [19]: 0.06 nM
